According to US20250170140A1, “PHARMACEUTICAL COMPOSITION FOR PREVENTING OR TREATING CANCER COMPRISING CARNITINE ACYLCARNITINE CARRIER INHIBITOR AND PEROXISOMAL BETA OXIDATION INHIBITOR” (priority 2021, published 2025):

Tests used:
Assay type in all cases: cell-based
MCF-7 cells = test: SRB assay, breast cancer cell line MCF-7
Experimental: To determine the effect of the combination treatment of omeprazole (KN510), a carnitine acylcarnitine carrier inhibitor, and thioridazine (KN714), a peroxisome beta-oxidation inhibitor, on cancer cell growth, the extent of cancer cell death was determined using the SRB assay (Sulforhodamine B colorimetric assay), and the degree of cancer cell growth was analyzed relative to the control (100%). As a comparison, omeprazole (KN510) and trimetazidine (KN713), a 3-ketoacyl CoA thiolase inhibitor, were co-treated.
First, a pancreatic cancer cell line, MIA PaCa-2, was prepared, and cells (100 μl) were inoculated into 96-well cell culture plates at plating densities ranging from 5,000 to 20,000 cells/well, depending on the doubling time of each cell line. After cell inoculation, 96-well cell culture plates were incubated for 24 hours before the addition of experimental drugs. MIA PaCa2 cells were treated with omeprazole (KN510) at concentrations of 10^−8 M, 10^−7 M, 10^−6 M, 10^−5 M, 10^−4 M, and 10^−3 M, thioridazine (KN714) at concentrations of 10^−10 M, 10^−9 M, 10^−8M, 10^−7 M, 10^−6 M, and 10^−5 M, and trimetazidine (KN713) at concentrations of 10^−7 M, 10^−6 M, 10^−5 M, 10^−4 M, 10^−3 M, and 10^−2 M, respectively.
(§1) The cells were then incubated in a CO2 incubator for 48 hours, after which the assay was terminated by the addition of cold TCA. Cells were fixed in situ by gently adding 50 μl of cold 50% (w/v) TCA (final concentration: 10% TCA) and incubated at 4° C. for 60 min. The supernatant was discarded, and the plate was washed five times with distilled water and air dried. Sulforhodamine B (SRB) solution (100 μl) of 0.4% (w/v) in 1% acetic acid was added to each well, and the plate was left at room temperature for 10 min. After staining, unbound dye was removed by washing five times with 1% acetic acid, and the plate was air-dried. The bound dye was then solubilized with 10 mM trizma base, and the absorbance was recorded at 515 nm using an automated plate reader.
Based on Table 1 above and GI50 values, omeprazole (KN510) and/or thioridazine (KN714) concentrations were added to each well such that the concentrations were as shown in the following groups, and then cancer cell death was measured in the same manner as in Examples 1-1 above. • 1) Control, • 2) Thioridazine (KN714) 5 μM alone treatment group, • 3) Thioridazine (KN714) 10 μM alone treatment group, • 4) Omeprazole (KN510) 200 μM alone treatment group, • 5) Omeprazole (KN510) 200 μM+thioridazine (KN714) 5 μM combination treatment group, • 6) Omeprazole (KN510) 200 μM+thioridazine (KN714) 10 μM combination treatment group.
When the anticancer activity of two compounds in combination is greater than the simple sum of the anticancer activity of the individual compounds (expected activity), this is called synergistic. The predicted synergistic activity of a combination of the present invention can be calculated using the Colby Equation in Equation 1 (S.R. Colby, Weeds, 1967, pp. 15, 20-22): […]
In the present invention, the actual measure of anti-cancer activity of the combination treatment was the inhibition rate of cancer cell growth (%), and the predicted value (E) of the combination treatment was measured by substituting it into the above Colby Equation. If the actual value is greater than the predicted value, it can be judged that there is a synergistic effect, and in this invention, the predicted value calculated by the Colby Equation and the actual value were compared to further verify the synergistic effect of the combination.
Experiments were performed using the breast cancer cell lines MCF-7 cells (1.2×10^4 cells/well) and MDA-MB-231 cells (8.0×10^3 cells/well) in the same manner as in Examples 1-2 and 1-3 above.

HCT-116 cells = test: SRB assay, colon cancer cell line HCT-116
Experimental: as §1, with “As a comparison, omeprazole (KN510) and trimetazidine (KN713), a 3-ketoacyl CoA thiolase inhibitor, were co-treated. […] After cell inoculation, 96-well cell culture plates were incubated for 24 hours before the addition of experimental drugs. […] The cells” for “The cells”, “plate reader. […] The predicted synergistic activity of a combination of the present invention can be calculated using the Colby Equation in Equation 1 (S.R. Colby, Weeds, 1967, pp. 15, 20-22): In the present invention, the actual measure of anti-cancer activity of the combination treatment was the inhibition rate of cancer cell growth (%), and the predicted value (E) of the combination treatment was measured by substituting it into the above Colby Equation.” for “plate reader.”

SK-MEL-5 = test: SRB assay, melanoma cell line SK-MEL-5
Experimental: as §1, with “As a comparison, omeprazole (KN510) and trimetazidine (KN713), a 3-ketoacyl CoA thiolase inhibitor, were co-treated. […] After cell inoculation, 96-well cell culture plates were incubated for 24 hours before the addition of experimental drugs. […] The cells” for “The cells”, “plate reader. […] The predicted synergistic activity of a combination of the present invention can be calculated using the Colby Equation in Equation 1 (S.R. Colby, Weeds, 1967, pp. 15, 20-22): In the present invention, the actual measure of anti-cancer activity of the combination treatment was the inhibition rate of cancer cell growth (%), and the predicted value (E) of the combination treatment was measured by substituting it into the above Colby Equation.” for “plate reader.”

H1975 cells = test: SRB assay, lung cancer cells H1975
Experimental: as §1, with “As a comparison, omeprazole (KN510) and trimetazidine (KN713), a 3-ketoacyl CoA thiolase inhibitor, were co-treated. […] After cell inoculation, 96-well cell culture plates were incubated for 24 hours before the addition of experimental drugs. […] The cells” for “The cells”, “plate reader. […] The predicted synergistic activity of a combination of the present invention can be calculated using the Colby Equation in Equation 1 (S.R. Colby, Weeds, 1967, pp. 15, 20-22): In the present invention, the actual measure of anti-cancer activity of the combination treatment was the inhibition rate of cancer cell growth (%), and the predicted value (E) of the combination treatment was measured by substituting it into the above Colby Equation.” for “plate reader.”

SK-OV-3 cells = test: SRB assay, ovarian cancer cells SK-OV-3
Experimental: as §1, with “As a comparison, omeprazole (KN510) and trimetazidine (KN713), a 3-ketoacyl CoA thiolase inhibitor, were co-treated. […] After cell inoculation, 96-well cell culture plates were incubated for 24 hours before the addition of experimental drugs. […] The cells” for “The cells”, “plate reader. […] The predicted synergistic activity of a combination of the present invention can be calculated using the Colby Equation in Equation 1 (S.R. Colby, Weeds, 1967, pp. 15, 20-22): In the present invention, the actual measure of anti-cancer activity of the combination treatment was the inhibition rate of cancer cell growth (%), and the predicted value (E) of the combination treatment was measured by substituting it into the above Colby Equation.” for “plate reader.”

PC-3 cells = test: SRB assay, prostate cancer cells PC-3
Experimental: as §1, with “As a comparison, omeprazole (KN510) and trimetazidine (KN713), a 3-ketoacyl CoA thiolase inhibitor, were co-treated. […] After cell inoculation, 96-well cell culture plates were incubated for 24 hours before the addition of experimental drugs. […] The cells” for “The cells”, “plate reader. […] The predicted synergistic activity of a combination of the present invention can be calculated using the Colby Equation in Equation 1 (S.R. Colby, Weeds, 1967, pp. 15, 20-22): In the present invention, the actual measure of anti-cancer activity of the combination treatment was the inhibition rate of cancer cell growth (%), and the predicted value (E) of the combination treatment was measured by substituting it into the above Colby Equation.” for “plate reader.”

CAKI-1 cells = test: SRB assay, renal cell carcinoma cell line CAKI-1
Experimental: as §1, with “As a comparison, omeprazole (KN510) and trimetazidine (KN713), a 3-ketoacyl CoA thiolase inhibitor, were co-treated. […] After cell inoculation, 96-well cell culture plates were incubated for 24 hours before the addition of experimental drugs. […] The cells” for “The cells”, “plate reader. […] The predicted synergistic activity of a combination of the present invention can be calculated using the Colby Equation in Equation 1 (S.R. Colby, Weeds, 1967, pp. 15, 20-22): In the present invention, the actual measure of anti-cancer activity of the combination treatment was the inhibition rate of cancer cell growth (%), and the predicted value (E) of the combination treatment was measured by substituting it into the above Colby Equation.” for “plate reader.”

[1] = Homo sapiens, KN510 100 μM, read-out: Inhibition rate of cancer cell growth (%) (Actual value)
[2] = Homo sapiens, KN510 200 μM, read-out: Inhibition rate of cancer cell growth (%) (Actual value)
[3] = Homo sapiens, KN714 5 μM, read-out: Inhibition rate of cancer cell growth (%) (Actual value)
[4] = Homo sapiens, KN714 10 μM, read-out: Inhibition rate of cancer cell growth (%) (Actual value)

## COc1ccc2[nH]c([S+]([O-])Cc3ncc(C)c(OC)c3C)nc2c1 (centres unmarked) [KN510, omeprazole]
MCF-7 cells; Homo sapiens, MCF7, KN510 100 μM, read-out: Inhibition rate of cancer cell growth (%) (Actual value)
  inhibition at 100 µM: 34.7%
MCF-7 cells; Homo sapiens, MCF7, KN510 200 μM, read-out: Inhibition rate of cancer cell growth (%) (Actual value)
  inhibition at 200 µM: 50%
MCF-7 cells; KN510 100 μM
  Cancer cell growth rate Average (%): 65.30%
MCF-7 cells; KN510 200 μM
  Cancer cell growth rate Average (%): 49.96%
HCT-116 cells; [1]
  inhibition at 100 µM: 15.7%
HCT-116 cells; [2]
  inhibition at 200 µM: 31.1%
HCT-116 cells; KN510 100 μM
  Cancer cell growth rate Average (%): 84.28%
HCT-116 cells; KN510 200 μM
  Cancer cell growth rate Average (%): 68.86%
SK-MEL-5; [1]
  inhibition at 100 µM: 34.6%
SK-MEL-5; [2]
  inhibition at 200 µM: 53.9%
SK-MEL-5; KN510 100 μM
  Cancer cell growth rate Average (%): 65.42%
SK-MEL-5; KN510 200 μM
  Cancer cell growth rate Average (%): 46.11%
H1975 cells; Homo sapiens, NCI-H1975, KN510 100 μM, read-out: Inhibition rate of cancer cell growth (%) (Actual value)
  inhibition at 100 µM: 15.5%
H1975 cells; Homo sapiens, NCI-H1975, KN510 200 μM, read-out: Inhibition rate of cancer cell growth (%) (Actual value)
  inhibition at 200 µM: 56.8%
H1975 cells; KN510 100 μM
  Cancer cell growth rate Average (%): 84.54%
H1975 cells; KN510 200 μM
  Cancer cell growth rate Average (%): 43.18%
SK-OV-3 cells; [1]
  inhibition at 100 µM: 11.5%
SK-OV-3 cells; [2]
  inhibition at 200 µM: 59.8%
SK-OV-3 cells; KN510 100 μM
  Cancer cell growth rate Average (%): 88.53%
SK-OV-3 cells; KN510 200 μM
  Cancer cell growth rate Average (%): 40.18%
PC-3 cells; [1]
  inhibition at 100 µM: 46.6%
PC-3 cells; [2]
  inhibition at 200 µM: 66.2%
PC-3 cells; KN510 100 μM
  Cancer cell growth rate Average (%): 53.42%
PC-3 cells; KN510 200 μM
  Cancer cell growth rate Average (%): 33.81%
CAKI-1 cells; [1]
  inhibition at 100 µM: 32%
CAKI-1 cells; [2]
  inhibition at 200 µM: 72.9%
CAKI-1 cells; KN510 100 μM
  Cancer cell growth rate Average (%): 67.99%
CAKI-1 cells; KN510 200 μM
  Cancer cell growth rate Average (%): 27.11%

## CSc1ccc2c(c1)N(CCC1CCCCN1C)c1ccccc1S2 (centres unmarked) [KN714, 10-[2-(1-methyl-2-piperidyl)ethyl]-2-(methylthio)phenothiazine]
MCF-7 cells; Homo sapiens, MCF7, KN714 5 μM, read-out: Inhibition rate of cancer cell growth (%) (Actual value)
  inhibition at 5 µM: 1.49%
MCF-7 cells; Homo sapiens, MCF7, KN714 10 μM, read-out: Inhibition rate of cancer cell growth (%) (Actual value)
  inhibition at 10 µM: 60.3%
MCF-7 cells; KN714 5 μM
  Cancer cell growth rate Average (%): 98.51%
MCF-7 cells; KN714 10 μM
  Cancer cell growth rate Average (%): 39.69%
HCT-116 cells; [3]
  inhibition at 5 µM: 7.99%
HCT-116 cells; [4]
  inhibition at 10 µM: 32.2%
HCT-116 cells; KN714 5 μM
  Cancer cell growth rate Average (%): 92.01%
HCT-116 cells; KN714 10 μM
  Cancer cell growth rate Average (%): 67.80%
SK-MEL-5; [3]
  inhibition at 5 µM: 19.3%
SK-MEL-5; [4]
  inhibition at 10 µM: 124%
SK-MEL-5; KN714 5 μM
  Cancer cell growth rate Average (%): 80.69%
SK-MEL-5; KN714 10 μM
  Cancer cell growth rate Average (%): −23.56%
H1975 cells; Homo sapiens, NCI-H1975, KN714 5 μM, read-out: Inhibition rate of cancer cell growth (%) (Actual value)
  inhibition at 5 µM: -13.9%
H1975 cells; Homo sapiens, NCI-H1975, KN714 10 μM, read-out: Inhibition rate of cancer cell growth (%) (Actual value)
  inhibition at 10 µM: 8.1%
H1975 cells; KN714 5 μM
  Cancer cell growth rate Average (%): 113.89%
H1975 cells; KN714 10 μM
  Cancer cell growth rate Average (%): 91.90%
SK-OV-3 cells; [3]
  inhibition at 5 µM: 7.82%
SK-OV-3 cells; [4]
  inhibition at 10 µM: 37.6%
SK-OV-3 cells; KN714 5 μM
  Cancer cell growth rate Average (%): 92.18%
SK-OV-3 cells; KN714 10 μM
  Cancer cell growth rate Average (%): 62.36%
PC-3 cells; [3]
  inhibition at 5 µM: 18.1%
PC-3 cells; [4]
  inhibition at 10 µM: 53%
PC-3 cells; KN714 5 μM
  Cancer cell growth rate Average (%): 81.94%
PC-3 cells; KN714 10 μM
  Cancer cell growth rate Average (%): 47.00%
CAKI-1 cells; [3]
  inhibition at 5 µM: 24%
CAKI-1 cells; [4]
  inhibition at 10 µM: 49.4%
CAKI-1 cells; KN714 5 μM
  Cancer cell growth rate Average (%): 75.99%
CAKI-1 cells; KN714 10 μM
  Cancer cell growth rate Average (%): 50.59%
